Assay results taken from patent US12648928B2, “Intervention strategy for prevention or treatment of diabetes mellitus, autoimmune disease, inflammatory disease or cardiovascular disease” (ACADEMISCH MEDISCH CENTRUM, priority 2020, dated 2026).

Assays:
Assay type in all cases: cell-based
[1] = tested on: murine bone marrow-isolated monocytes or bone marrow-derived macrophages; assay: In vitro stimulation of murine monocytes / bone marrow-derived macrophages, cytokine ELISA
Method: Naïve bone marrow monocytes were isolated from BM cells. Briefly, hind legs were removed from 3 mice, cleaned from surrounding muscles. The femur and tibia bones were trimmed at their extremities, the BM content was flushed out with cold PBS using a 10 ml syringe and a 25G needle and filtered through a 40 μm strainer. Red blood cells (RBC) were lysed with 1× RBC lysis buffer (Biolegend) for 5 min. on ice. CD11b+ monocytes were further purified by positive selection using a cocktail of CD11 b magnetic beads (Miltenyi Biotec, #130-049-601) and magnetizing MS columns (Miltenyi Biote) according to the manufacturer's instructions. Subsequently, monocytes were seeded in F-bottom 96-well plates at 1×10^5 cells per well in RPMI1640 supplemented with 10% heat-inactivated fetal bovine serum, penicillin (100 U/ml), streptomycin (100 μg/ml), L-glutamine (2 mM) […]. Monocytes were activated with 10 μg/ml LPS (Sigma-Aldrich) and subjected to treatment with 6-BT (10/100 μM), LysoPC(20:0) (10/50 μM), MA-GPC (10/50/100 μM), or appropriate vehicle. Cells were kept in a final volume of 200 μl/well for 24 hours, after which supernatant was harvested and stored at −80° C.
(§1) Bone marrow-derived macrophages (BMDM) and DC (BMDC) were obtained by differentiating freshly isolated BM cells from femur and tibia bones (as above described) of C57/B16 mice (N=3 per experiment). For BMDM, BM cells were seeded at 3×10^6 cells per 10 cm dish and cultured for 7 days in 12 ml RPMI1640 medium with 20% fetal bovine serum, 30% L-929 cell conditioned media, as source of murine macrophage colony-stimulating factor (M-CSF). For BMDC, BM cells were seeded at 0.5×10^6/ml cells in 25 ml in 10 cm dishes and cultured for 7 days in presence of GM-CSF in 5% FBS-RPMI1640 medium. After differentiation, BMDM/DCs were harvested, counted and seeded at a density of 1×10^5 cells per well in a F-bottom 96-well plate and left to adhere for 20 hours before experiments were performed. Macrophages were activated with 10 μg/ml polyinosinic-polycytidylic acid poly(I.C) (InvivoGen) for 24 hours in presence or not of 6-BT (10/100 μM), LysoPC(20:0) (10/50 μM), or MA-GPC (10/50/100 μM) in a final volume of 200 μl/well. At the end of the assay, supernatant was harvested and stored at −80° C.
(§2) Specific ELISAs (R&D Systems) were utilized to measure the concentration of TNFα, IFNβ, and IFNγ in cell supernatant of murine monocytes, macrophages ad T cells, respectively, according to the manufacturer's instructions. The concentration of insulin after 24-hour treatment with metabolites or after GSIS were determined using Rat insulin ELISA (Mercodia) according to the manufacturer's instructions. GSIS was calculated by subtracting the concentration of insulin at 1 mM glucose to the insulin rate at 22 mM glucose.
Here, murine bone marrow-isolated monocytes (Christ A., Western Diet Triggers NLRP3-Dependent Innate Immune Reprogramming. Cell 2018) or bone marrow-derived macrophages (Swanson K V, A noncanonical function of cGAMP in inflammasome priming and activation. JEM 2017) were exposed for 24 hours to the indicated concentrations of 6-BT (10-100 μM) in presence or not of 10 μg/ml LPS, 10 μg/ml P3C or 10 μg/ml poly(I.C).

murine DC = assay: In vitro stimulation of murine dendritic cells, cytokine secretion; conditions: GM-CSF differentiated DC
Method: as §1, with “Macrophages were activated with 10 μg/ml polyinosinic-polycytidylic acid poly(I.C) (InvivoGen) for 24 hours in presence or not of 6-BT (10/100 μM), LysoPC(20:0) (10/50 μM), or MA-GPC (10/50/100 μM) in a final volume of 200 μl/well. At the end of the assay, supernatant was harvested and stored at −80° C.” left out
as §2, with “glucose. […]” for “glucose.”

human monocytes = assay: In vitro stimulation of human monocytes; conditions: LPS stimulation 24 hours, 100 μM (FIG. 10)
Method: The mononuclear cell fraction was isolated from the blood of healthy volunteers (Sanquin Bloodbank, Amsterdam, The Netherlands) by density centrifugation using Lymphoprep™ (Axis-Shield) and isolated using human CD14 magnetic beads and MACS® cell separation columns (Miltenyi Biotec) according to the manufacturer's instructions. Isolated primary human monocytes were counted and seeded at 1>10^6 cells/mL in 24-well plates with 1 ml medium supplemented with 10% fetal bovine serum, 100 U/ml penicillin, 100 μg/ml streptomycin, 2 mM L-glutamine. After seeding, cells were stimulated with 10 ng/ml LPS or 25 mM D-glucose (both Sigma-Aldrich) for 24 hours with/without 100 μM 6-BT. Afterwards, cells were lysed with Tripure isolation reagent (Roche) and stored at −80° C. until RNA isolation.
Total RNA was extracted from Tripure isolation reagent cell lysates. RNA was converted to cDNA by with iScript kit (BioRad). Quantitative polymerase chain reaction (qPCR) was performed using SYBR Green-SensiMix (Bioline) on a CFX384 Touch Real-Time PCR Detection System (BioRad). The delta delta Ct method was used to calculate gene expression as fold-change compared to control (unstimulated conditions).

NF-kB pathway = assay: Phosphorylated p65 subunit after PMA/ionomycin activation, Jurkat cells; conditions: human Jurkat cells; PMA 50 μg/ml and ionomycin 1 μg/ml; 5-10 minutes after activation (FIG. 18)
Method: Seeking for the molecular mechanism(s) underlying 6-BT actions, 6-BT impact on the activation of the NF-kB pathway, a central pathway in all inflammatory diseases (beyond autoimmunity) was checked first. […] Upon T cell activation with PMA ([…]) and ionomycin (1 μg/ml), 6-BT could inhibit, at very early time-points (5-10 minutes after activation), the NF-kB signaling. This effect was found in both murine and human (Jurkat cells) CD4 T cells.

Which “secretion of TNFα upon TLR4 engagement” value ([1]; 10-100 μM, 24 hours, 10 μg/ml LPS, ELISA (FIG. 14)) does the source give for N[C@@H](Cc1c[nH]c2cc(Br)ccc12)C(=O)O [6-BT, 6-bromotryptophan] here?
Its value is “can inhibit the secretion”.

And the “secretion of TNFα upon TLR2 engagement” value ([1]; 10-100 μM, 24 hours, 10 μg/ml P3C, ELISA (FIG. 14))?
The value was “can inhibit the secretion”.

What about the “secretion of IFNbeta upon TLR3 activation” value ([1]; 10-100 μM, 24 hours, 10 μg/ml poly(I.C), ELISA (FIG. 14)) of the same compound?
The value was “can inhibit the secretion”.

And the “type 1 IFN secretion” value ([1]; PolyI:C for 24 hours, TLR3 stimulation (FIG. 9))?
The value was “impair type 1 IFN secretion”.

What about the “anti-inflammatory effects on monocytes” value ([1]; monocytes isolated from murine bone marrow, 6-BT vs tryptophan) of the same compound?
The value was “anti-inflammatory effects are specific for the 6-bromotryptophan molecule”.

And the “cytokine secretion by monocytes” value ([1]; murine monocytes CD11b+ activated with LPS (10 μg/ml) for 24 hours, TLR4 stimulation (FIG. 8))?
Its value is “halt cytokine secretion”.

What about the “secretion of IFNbeta by DC” value (murine DC; TLR3 activation with 10 μg/ml poly(I.C) (FIG. 15)) of the same compound?
The value was “inhibits the secretion”.

And the “secretion of TNFα by DC” value (murine DC; TLR4 activation with 100 μg/ml LPS (FIG. 15))?
The value was “inhibits the secretion”.

What about the “cytokine production by human monocytes” value (human monocytes) of the same compound?
The value was “reduces cytokine production”.

What about the “NF-kB signaling (phosphorylated p65 subunit)” value (NF-kB pathway) of the same compound?
The value was “could inhibit”.
